Consider 4 compounds from patent US7064139B2, “Method for treating retroviral infections” (Uniroyal Chemical Company, Inc., priority 2001, dated 2006).

In brackets after ≈: the same amount, converted by molar mass. Some results are limits rather than exact numbers.

The first data set has as its system HIV-2 (ROD). Nature of the data set: Inhibition of HIV-2 syncytium formation in CEM cells. The note with it: Human immunodeficiency virus 2, CCRF-CEM; CEM cells, syncytium formation, day four post infection; read-out: EC50 (ug/ml) HIV-2. It is filed as cell-based. An outline of the steps: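 Human T-lymphoblast CEM cells, suspended at roughly 300,000 cells per ml of culture medium, were infected with about 100 CCID50 of HIV-2 (ROD). Aliquots of 100 μl of infected cells were placed in 200 μl microtiter wells holding 100 μl of serial 5-fold compound dilutions, and syncytium formation was scored microscopically four days after infection.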
As to `[O-][n+]1ccccc1[S+]([O-])Cc1ccccc1` (stereo not drawn) [Compound 5, 2-(Benzylsulfinyl)-pyridine-N-oxide], the EC50 was determined as 2.1 µg/mL (≈ 9 µM).

For the compound `O=S(=O)(Cc1ccccc1)c1cccc[n+]1[O-]` [Compound 6, 2-(Benzylsulfonyl)-pyridine-N-oxide], the EC50 was 4.4 µg/mL (≈ 17.7 µM).

`Cc1cc(C)c(C[S+]([O-])c2cccc[n+]2[O-])c(C)c1` (stereo not drawn) [Compound 88, 2-(2,4,6-trimethylbenzylsulfinyl)-pyridine-N-oxide]: the EC50 turned out to be 1.5 µg/mL (≈ 5.45 µM).

A further data set relates to HIV-1 (IIIB). Nature of the data set: microbe, parasite or virus in culture. In kind it is cell-based. Particulars: Human immunodeficiency virus 1, IIIB, CCRF-CEM; CEM cells, syncytium formation, day four post infection; read-out: EC50 (ug/ml) HIV-1. Summed up:
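Human T-lymphoblast CEM cells at roughly 300,000 cells per ml were infected with about 100 CCID50 of HIV-1 (IIIB). Then 100 μl of the infected suspension went into 200 μl microtiter wells holding 100 μl of 5-fold serial compound dilutions. Inhibition of syncytium formation was scored microscopically on day four post infection, and protection against virus-induced cytopathicity was recorded.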
On to `[O-][n+]1ccccc1[S+]([O-])Cc1ccccc1` (stereo not drawn) [Compound 5, 2-(Benzylsulfinyl)-pyridine-N-oxide], for which the EC50 came to 3.4 µg/mL (≈ 14.6 µM).

With `O=S(=O)(Cc1ccccc1)c1cccc[n+]1[O-]` [Compound 6, 2-(Benzylsulfonyl)-pyridine-N-oxide], the EC50 stood at 4.4 µg/mL (≈ 17.7 µM).

As for `Cc1cc(C)c(C[S+]([O-])c2cccc[n+]2[O-])c(C)c1` (stereo not drawn) [Compound 88, 2-(2,4,6-trimethylbenzylsulfinyl)-pyridine-N-oxide], the EC50 was found to be 1.5 µg/mL (≈ 5.45 µM).

A further data set has as its system HHV-6 (Z-29 strain, variant B). Nature of the data set: Anti-HHV-6 activity in MOLT-3 cells (CPE and viral DNA slot blot). In kind it is cell-based, human herpes virus type 6 (HHV-6). The note with it: Homo sapiens, MOLT-3, read-out: EC50 Based on CPE, MOLT-3 cells, Exp. 1. Here is the method:
(§1) Two human immature T-lymphoblastoid cell lines were used: HSB-2, obtained from American Type Culture Collection (No. CCL 120.1); and MOLT-3, purchased from ABI Technologies (Columbia, Md., USA). The cells were propagated in RPMI 1640 medium supplemented with 10% fetal calf serum, 2 mM L-glutamine, 0.075% sodium bicarbonate and gentamycin. The cultures were incubated at 37° C. in a humidified and CO2 controlled incubator.
The GS strain of HHV-6 variant A was kindly provided by Dr. R. Gallo, while the Z-29 strain of HHV-6 variant B was obtained from ABI Technologies (Columbia, Md., USA). For preparation of virus stocks, suspensions of HSB-2 cells infected with strain GS, or MOLT-3 cells infected with strain Z-29, were collected at 10–12 days post infection, when the cytopathic effect (CPE) was maximal and cells were >90% virus positive (as determined by immunofluorescence detection of HHV-6 antigens). Since the titer of virus released in culture supernatant was insufficient, virus stocks were used as whole cell suspensions, which were relatively stable when kept in aliquots at −80° C.
Stock solutions of the test compounds or of standards were prepared in dimethylsulfoxide or phosphate buffered saline (PBS). Working dilutions for the antiviral assays were prepared by appropriate dilution of the stock solutions in cell culture medium. The antiherpetic drug Foscarnet (PFA, Foscavir® from Astra, Södertälje, Sweden) was used as standard.
On day 0, the GS and Z-29 strains of HHV-6 were inoculated onto HSB-2 cells and MOLT-3 cells, respectively, at a multiplicity of infection of 0.001 CCID50 (50% cell culture infective doses) per cell, and a cell suspension having a cell density of approximately 5×10^6 cells per ml of culture medium. After two hours of virus adsorption at 37° C., the unadsorbed virus was removed by centrifugation and the infected cells were resuspended and transferred to 48-well microtrays containing the test compounds or control in two- to five-fold dilutions. The final cell density of the suspended cells was approximately 0.8×10^6 cells per ml of culture medium.
(§2) The cells were incubated at 37° C. and subcultivated on days four and seven by two-fold dilution in medium containing fresh test compound or control. On days 10–14, the cells were examined microscopically to score the viral cytopathic effect (CPE) visible by the appearance of large ballooning cells and drug toxicity. Then total DNA was extracted from the infected cells with the QIAamp Blood Kit (Qiagen, Germany), using the manufacturer's instructions, and the DNA extracts were frozen at −20° C. until further analysis.
A digoxigenin labeled probe specific for strain GS or Z-29, was prepared by PCR reaction in the presence of digoxigenin-dUTP, on a 1-μl aliquot of a DNA extract prepared from infected cells showing manifest CPE. The 5′-3′ primer sequence was GCTAGAACG TATTTGCTGCAGAACG (Seq. Id. No. 1) and […] (Seq. Id. No. 2), delimiting a 259 bp sequence within the U67 gene. The amplified product was separated on agarose gel and extracted from the gel fragment with the QIAquick gel extraction kit (Qiagen, Germany) after which the purified probe was frozen at −20° C.
For quantitation of viral DNA in the infected and drug-treated cell cultures, appropriate aliquots of the total DNA extracts (containing 5 μg of total DNA, as determined spectrophotometrically at 260 nm) were boiled during 10 min, and blotted on a nylon membrane (Hybond-N from Amersham) using a Hoefer slot blot apparatus from Pharmacia (Sweden). After UV cross-linking, the membrane was prehybridized during 30 min at 42° C. with DIG (digoxigenin) easy Hyb solution® (Boehringer Mannheim, Germany). Then, the GS- or Z-29 specific digoxigenin labeled probe was added and allowed to hybridize by incubation overnight at 42° C. […]
As for `[O-][n+]1ccccc1[S+]([O-])Cc1ccccc1` (stereo not drawn) [Compound 5, 2-(Benzylsulfinyl)-pyridine-N-oxide], the EC50 is over 100 µg/mL.

As for `O=S(=O)(Cc1ccccc1)c1cccc[n+]1[O-]` [Compound 6, 2-(Benzylsulfonyl)-pyridine-N-oxide], the EC50 was determined as 17.1 µg/mL (≈ 68.6 µM).

In the case of `O=C(O)P(=O)(O)O` [PFA, Foscarnet, reference compound], the EC50 was found to be 8.9 µg/mL (≈ 70.6 µM).

The same data set, now with this note: Homo sapiens, MOLT-3, read-out: EC50 Based on CPE, MOLT-3 cells, Exp. 2.
In the case of `[O-][n+]1ccccc1[S+]([O-])Cc1ccccc1` (stereo not drawn) [Compound 5, 2-(Benzylsulfinyl)-pyridine-N-oxide], the EC50 was over 200 µg/mL.

In the case of `O=S(=O)(Cc1ccccc1)c1cccc[n+]1[O-]` [Compound 6, 2-(Benzylsulfonyl)-pyridine-N-oxide], the EC50 was found to be 8.7 µg/mL (≈ 34.9 µM).

`O=C(O)P(=O)(O)O` [PFA, Foscarnet, reference compound]: the EC50 is 4 µg/mL (≈ 31.7 µM).

The data set is the same for the next values; noted with them: Homo sapiens, MOLT-3, read-out: EC50 Based on CPE, MOLT-3 cells, Exp. 3.
As to `[O-][n+]1ccccc1[S+]([O-])Cc1ccccc1` (stereo not drawn) [Compound 5, 2-(Benzylsulfinyl)-pyridine-N-oxide], the EC50 is over 100 µg/mL.

As for `O=S(=O)(Cc1ccccc1)c1cccc[n+]1[O-]` [Compound 6, 2-(Benzylsulfonyl)-pyridine-N-oxide], the EC50 is 12.9 µg/mL (≈ 51.7 µM).

For `O=C(O)P(=O)(O)O` [PFA, Foscarnet, reference compound], the EC50 came out at 6.5 µg/mL (≈ 51.6 µM).

Still in this data set, the particulars now being: Homo sapiens, MOLT-3, read-out: EC50 Based on Viral DMA Detection, MOLT-3 cells, Exp. 1.
Regarding `[O-][n+]1ccccc1[S+]([O-])Cc1ccccc1` (stereo not drawn) [Compound 5, 2-(Benzylsulfinyl)-pyridine-N-oxide], the EC50 is over 100 µg/mL.

In the case of `O=S(=O)(Cc1ccccc1)c1cccc[n+]1[O-]` [Compound 6, 2-(Benzylsulfonyl)-pyridine-N-oxide], the EC50 was 28.1 µg/mL (≈ 113 µM).

`O=C(O)P(=O)(O)O` [PFA, Foscarnet, reference compound]: the EC50 amounted to 9.4 µg/mL (≈ 74.6 µM).

Still in this data set, the particulars now being: Homo sapiens, MOLT-3, read-out: EC50 Based on Viral DMA Detection, MOLT-3 cells, Exp. 2.
For `O=S(=O)(Cc1ccccc1)c1cccc[n+]1[O-]` [Compound 6, 2-(Benzylsulfonyl)-pyridine-N-oxide], the EC50 was found to be 17.3 µg/mL (≈ 69.4 µM).

As to `O=C(O)P(=O)(O)O` [PFA, Foscarnet, reference compound], the EC50 is 8.8 µg/mL (≈ 69.8 µM).

The data set is the same for the next values; noted with them: Homo sapiens, MOLT-3, read-out: EC50 Based on Viral DMA Detection, MOLT-3 cells, Exp. 3.
In the case of `[O-][n+]1ccccc1[S+]([O-])Cc1ccccc1` (stereo not drawn) [Compound 5, 2-(Benzylsulfinyl)-pyridine-N-oxide], the EC50 is over 100 µg/mL.

For `O=S(=O)(Cc1ccccc1)c1cccc[n+]1[O-]` [Compound 6, 2-(Benzylsulfonyl)-pyridine-N-oxide], the EC50 came to 22.7 µg/mL (≈ 91.1 µM).

As to `O=C(O)P(=O)(O)O` [PFA, Foscarnet, reference compound], the EC50 worked out at 9.1 µg/mL (≈ 72.2 µM).

In another data set the test system is Davis strain CMV. Put plainly: Reduction of CMV-induced cytopathicity in HEL cells. Particulars: HEL cells, estimate of percent protection at the concentration in the previous column. In kind it is cell-based, human cytomegalovirus (HCMV). Summed up:
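Confluent HEL cells were infected with 100 PFU/well CMV for 1–2 h, then washed and kept in MEM with 2% FCS and test compound. EC50 is the concentration cutting virus-induced cytopathicity by 50% versus untreated control at day 7. Where cytotoxicity interfered, percent protection at the stated concentration is given.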
In the case of `[O-][n+]1ccccc1[S+]([O-])Cc1ccccc1` (stereo not drawn) [Compound 5, 2-(Benzylsulfinyl)-pyridine-N-oxide], the “Antiviral % Inhibition Davis strain CMV” value is reported as 0.0%.

Still in this data set, the particulars now being: Human betaherpesvirus 5, 168 h; HEL cells, virus-induced cytopathicity after seven days; read-out: Antiviral EC50 (ug/ml) Davis strain CMV.
As for `[O-][n+]1ccccc1[S+]([O-])Cc1ccccc1` (stereo not drawn) [Compound 5, 2-(Benzylsulfinyl)-pyridine-N-oxide], the EC50 is over 50 µg/mL.

Consider `O=S(=O)(Cc1ccccc1)c1cccc[n+]1[O-]` [Compound 6, 2-(Benzylsulfonyl)-pyridine-N-oxide], for which the EC50 was 19.5 µg/mL (≈ 78.2 µM).

Regarding `Cc1cc(C)c(C[S+]([O-])c2cccc[n+]2[O-])c(C)c1` (stereo not drawn) [Compound 88, 2-(2,4,6-trimethylbenzylsulfinyl)-pyridine-N-oxide], the EC50 worked out at 25 µg/mL (≈ 90.8 µM).

A further data set has as its system MOLT-3 cells. Nature of the data set: Toxicity in MOLT-3 cells, changes in cell morphology by microscopic examination. In kind it is cell-based, human. The note with it: Exp. 1. On the procedure: as §1, §2
The antiviral IC50 was calculated by extrapolation and defined as the compound concentration that produced 50% inhibition of virus replication as determined by microscopic examination or quantitation of viral DNA. Toxicity of the compounds was expressed as minimum cytotoxic concentration (MCC), or the lowest compound concentration that caused a microscopically visible alteration in cellular morphology.
Consider `[O-][n+]1ccccc1[S+]([O-])Cc1ccccc1` (stereo not drawn) [Compound 5, 2-(Benzylsulfinyl)-pyridine-N-oxide], for which the “MIC (concentration causing minimal changes in cell morphology)” value is 100 μg/ml.

On to `O=S(=O)(Cc1ccccc1)c1cccc[n+]1[O-]` [Compound 6, 2-(Benzylsulfonyl)-pyridine-N-oxide], for which the “MIC (concentration causing minimal changes in cell morphology)” value is recorded as 100 μg/ml.

In the case of `O=C(O)P(=O)(O)O` [PFA, Foscarnet, reference compound], the “MIC (concentration causing minimal changes in cell morphology)” value was over 100 μg/ml.

The same data set, now with this note: Exp. 2.
As for `[O-][n+]1ccccc1[S+]([O-])Cc1ccccc1` (stereo not drawn) [Compound 5, 2-(Benzylsulfinyl)-pyridine-N-oxide], the “MIC (concentration causing minimal changes in cell morphology)” value is listed as 100 μg/ml.

`O=S(=O)(Cc1ccccc1)c1cccc[n+]1[O-]` [Compound 6, 2-(Benzylsulfonyl)-pyridine-N-oxide]: the “MIC (concentration causing minimal changes in cell morphology)” value is 100 μg/ml.

As to `O=C(O)P(=O)(O)O` [PFA, Foscarnet, reference compound], the “MIC (concentration causing minimal changes in cell morphology)” value was over 100 μg/ml.

The data set is the same for the next values; noted with them: Exp. 3.
As for `[O-][n+]1ccccc1[S+]([O-])Cc1ccccc1` (stereo not drawn) [Compound 5, 2-(Benzylsulfinyl)-pyridine-N-oxide], the “MIC (concentration causing minimal changes in cell morphology)” value amounted to 100 μg/ml.

On to `O=S(=O)(Cc1ccccc1)c1cccc[n+]1[O-]` [Compound 6, 2-(Benzylsulfonyl)-pyridine-N-oxide], for which the “MIC (concentration causing minimal changes in cell morphology)” value was 100 μg/ml.

For `O=C(O)P(=O)(O)O` [PFA, Foscarnet, reference compound], the “MIC (concentration causing minimal changes in cell morphology)” value was over 100 μg/ml.
